Reference: paper PMC12040169 (PLOS Biology, 2025)

assay: in vitro; conditions: human, hela cells, % viability

Compound	viability at 28.5 h, 10 µM [%]
COc1ccc(C(C)C)cc1S(=O)(=O)NCCc1c(C)[nH]c2c(Cl)cccc12 [CBK266983]	94.5
CCc1nc2ccc(C(=O)N3CCN(C)CC3)cn2c1N(C)Cc1ccc(NC(C)=O)cc1 [CBK145603]	87
O=[N+]([O-])c1c(N2CCN(CCO)CC2)ccc2nonc12 [CBK264397]	96
COc1ccc(-c2nc(C3CCNCC3)n3ccccc23)cc1 [CBK035971]	92.9
O=C(CN(Cc1ccccc1)S(=O)(=O)c1ccc2c(c1)OCCO2)Nc1ccc2c(c1)OCCO2 [CBK262499]	98.5
O=C(CCN1CCOCC1)Nc1cc(Cl)cc(Cl)c1 [CBK057021]	119
C=CCC1(CC=C)CCN1C(=O)c1sc2ncn(C)c(=O)c2c1C [CBK282637]	84.7
O=C(O)c1nccnc1C(=O)NCCc1c[nH]c2ccc(Cl)cc12 [CBK286630]	93.8
Cc1cc(C)c(NC(=O)C2CCCCN2C23CC4CC(CC(C4)C2)C3)c(C)c1 (stereo not shown) [CBK261559C]	92.6
CN1CCN(CCC(=O)N/N=C/c2cccc(Br)c2)CC1 [CBK261496]	96.6
Cc1cc(C)nc(SCC(=O)Nc2ccc(S(=O)(=O)NC3CCCCC3)cc2)n1 [CBK268299]	86
O=C(O)c1ccc(/C=N/N2CCN(Cc3ccc(Cl)cc3)CC2)cc1 [CBK263561]	90.5
c1ccc(CCN2CCN(Cc3ncc[nH]3)CC2)cc1 [CBK138328]	120
O=C1NCC2(C/C=C/CCOc3ccccc31)CCN(C(=O)c1ccncc1)CC2 [CBK292018]	105
CC1CCN(CCNC(=O)CCc2nc3ccc(Cl)cc3[nH]2)CC1 [CBK281599]	88.7
O=C(O)c1[nH]c2ccccc2c1NS(=O)(=O)c1cc(Cl)sc1Cl [CBK049886]	67.5
O=S(=O)(Nc1ccc(-c2nc3cccnc3s2)cc1)c1ccccc1 [CBK287547]	116
O=C(CC1(O)C(=O)Nc2ccccc21)CC1(O)C(=O)Nc2ccccc21 (stereo not shown) [CBK263705]	93.1
Cc1cc(C)nc(-n2[nH]c(N)cc2=O)n1 [CBK270164]	85.7
COc1ccc(S(=O)(=O)N(C)CC(=O)NCc2cccnc2)cc1Cl [CBK268089]	108
O=S(=O)(N1CCOCC1)N1CCN(CC(O)COc2ccc(-c3ccccc3)cc2)CC1 (stereo not shown) [CBK269301]	106
CC(C)(C)c1csc(NC(=O)C2CC(=O)N(c3cccc(C(F)(F)F)c3)C2)n1 (stereo not shown) [CBK175545]	106

Compound	viability at 28.5 h, 10 µM [%]
CC(C)C(=O)Nc1c(-c2ccsc2)cnc2ncccc12 [CBK083714]	88.7
O=[N+]([O-])c1cc(-c2nnc(-c3ccccc3)o2)ccc1-n1c(-c2ccccc2)nnc1-c1ccccc1 [CBK267341]	99.2
Cc1cccc(N(CC(=O)NCc2ccco2)S(=O)(=O)c2ccccc2)c1 [CBK263571]	87.7
COc1ccc2[nH]cc(CCNC(=O)c3cc(-c4cccc(NC(C)=O)c4)cnc3N(C)S(C)(=O)=O)c2c1 [CBK076599]	101
CC(C)OC(=O)COc1ccc2c(=O)c(Oc3ccccc3Br)coc2c1 [CBK264226]	94
O=C(c1cc2cc(Cl)ccc2[nH]1)N1CCN(c2ccccn2)CC1 [CBK107343]	93.7
Cc1nnc2sc(-c3ccc(CNC(=S)NC(=O)c4ccccc4[N+](=O)[O-])cc3)nn12 [CBK268588]	84.6
O=C(CCCn1ccnc1)Nc1ccc(OC2CCCC2)cc1 [CBK281986]	92.3
COc1ccc(-c2nc(NC(=O)CC#N)cnc2-c2ccc(F)cc2)cc1 [CBK037198]	104
N#CCCN(C(=O)NCc1ccc2c(c1)OCO2)C1CCCCC1 [CBK156351]	98.7
Cc1ccc(-n2c(=O)[nH]c3c(C(N)=O)nc(CC(C)C)nc32)cc1 [CBK287294]	102
COc1ccc([C@@]23CC[C@@H](NC(=O)Nc4ccc(F)c(F)c4)C[C@@H]2N(C)CC3)cc1C#N [CBK067952T]	107
Cn1ccnc1CN(CCCn1ccnc1)Cc1ccccc1F [CBK283022]	102
Cc1cc(C)cc(NC(=O)C2CC(=O)N=C(NCc3ccccc3)N2)c1 (stereo not shown) [CBK269054]	87.1
O=C(O)c1ccc(NC(=O)c2ccc(S(=O)(=O)N3CCCCC3)cc2)cc1 [CBK267813]	94.2
Cc1ccc(-c2nnc(CNC(=O)c3cccc(Cl)c3)o2)s1 [CBK284646]	79.1
Cc1cc(C[C@@H]2COC[C@H]2NCc2ccc(C)c(C)c2)on1 [CBK284883]	106
O=C(CSCc1c(Cl)cccc1Cl)Nc1ccc(S(=O)(=O)N2CCOCC2)cc1 [CBK266276]	109
CNC1CCCCCC1(O)c1ccccc1 (stereo not shown) [CBK005073]	99.2
COc1cc(CNc2nnn[nH]2)cc(Cl)c1OC [CBK288087]	97.8
O=C(Cn1ccc([N+](=O)[O-])n1)NCc1ccco1 [CBK268999]	89.6
O=S(=O)(Cc1csc(N2CCOCC2)n1)c1ccccn1 [CBK011137]	90.1

Compound	viability at 28.5 h, 10 µM [%]
CN(C)CCCNC(=O)C1CCCN(c2nc3c(-c4ccccc4)csc3c(=O)[nH]2)C1 (stereo not shown) [CBK215504]	94.6
COc1ccccc1N1CCN(CCc2nnc(S)n2-c2ccccc2)CC1 [CBK262212]	102
CC(=O)Nc1ccc(S(=O)(=O)Nc2ccc(C(=O)N3CCOCC3)cc2)cc1 [CBK034564]	94.9
COCC(=O)N1CCc2sccc2C1c1ccc(NCc2cccc(OC)c2)cc1 (stereo not shown) [CBK286454]	92.9
Cc1sc2ncn(CC(=O)NC3CCOc4ccccc43)c(=O)c2c1C (stereo not shown) [CBK304562]	86.3
O=C(c1cc2ncc(Br)cn2n1)N1CCOCC1 [CBK058513]	97.9
O=C(Nc1nc2c(s1)CCCCC2)C1CN(C(=O)Cc2ccc(F)cc2)C1 [CBK285904]	87.2
CCC(c1cccnc1)N(C)C(=O)c1ccc(=O)n(C)c1 (stereo not shown) [CBK306802]	101
Cc1ccc(NC(=O)COc2cccnc2)c(C)n1 [CBK200379]	102
CC(=O)Nc1ccc(S(=O)(=O)N(C)CC(=O)O)cc1 [CBK267570]	97.8
COc1cc(C)c2c(N)c(C(C)=O)sc2n1 [CBK115336]	94
COc1cccc(-n2c(=O)[nH]c3c(C(N)=O)nc(-c4ccccc4)nc32)c1 [CBK287740]	121
CSc1ccc(-c2cn3ccnc3c(Nc3ccccc3)n2)cc1 [CBK066537]	91.3
CC(=O)Nc1ccc(CNc2ccc(Cl)cc2)cc1 [CBK012799]	104
O=c1[nH]c2c(-c3ccccc3)nnn2c2ccccc12 [CBK288047]	98.3
N#CC1(NC(=O)c2ccn(-c3cccc(F)c3)n2)CCSC1 (stereo not shown) [CBK304566]	106
Cc1ccc(C(=O)NCCN2CCOCC2)cc1S(=O)(=O)N1CCCCC1 [CBK267329]	86.2
COc1ccc(C(=O)Nc2noc3nc(C)ccc23)cc1OC [CBK287832]	89.7
N#CCCN1CCCC2(C1)NCCc1c2[nH]c2ccccc12 (stereo not shown) [CBK040031]	97
CS(=O)(=O)c1ccc(C(=O)N(Cc2ccccc2)c2ccc(S(=O)(=O)N3CCOC3=O)cc2)cc1 [CBK024590]	110
Cc1c(CN(C)CC(=O)Nc2cccc(C(F)(F)F)c2)cnn1C [CBK304341]	85
CCc1cc(CNS(=O)(=O)Cc2cccc(F)c2)on1 [CBK283061]	92.1

Compound	viability at 28.5 h, 10 µM [%]
NC1=C(c2ccccc2)C(=O)CN1NC(=O)COc1ccccc1-c1ccccc1 [CBK269258]	95.1
c1cc(-c2nccnc2OCCn2ccnc2)ccn1 [CBK106737]	87
COc1cc(SC)ccc1C(=O)N[C@H]1CCN2C(=O)[C@@H](CC(=O)O)NC(=O)[C@@H]2C1 [CBK289555]	108
COc1ccc(-c2nnc([C@H]3CCN(Cc4cccc(C#N)c4)C3)o2)cc1 [CBK289400]	94.8
Cc1ccc(NC(=O)N2CCC(C(=O)O)CC2)cc1 [CBK156077]	105
Cc1cccc(CN2CCC(NC(=O)c3cn(C(C)(C)C)nn3)CC2)c1 [CBK305927]	92
Cc1cccc(Nc2nc(N/N=C/c3c[nH]nc3-c3ccccc3)nc(N3CCC(C)CC3)n2)c1C [CBK262498]	89.3
Cc1cc(C)c(OCC(=O)Nc2cccc(-c3nc4cc(C(C)C)ccc4o3)c2)c([N+](=O)[O-])c1 [CBK264680]	88.6
c1nnc(SCc2ccc(CSc3nnc[nH]3)cc2)[nH]1 [CBK263282]	93.5
Cc1ccc(C)c2[nH]c(=O)c(CN(CCN3CCOCC3)Cc3nnnn3Cc3ccccc3)cc12 [CBK108063]	93.1
O=C1NC2(CCN(C(=O)c3ccc(C(F)(F)F)c(F)c3)CC2)Oc2ccc(-c3ccccc3)cc21 [CBK115841]	99.7
O=C(NC(c1ccccc1)c1ccccc1)N1CCCC(CO)C1 (stereo not shown) [CBK156036]	95.4
O=C(NNc1ccccc1)c1c(O)c2ccccc2oc1=O [CBK260878]	75.1
O=C(NCc1ccco1)C1CCN(c2nccc(C(F)(F)F)n2)CC1 [CBK028778]	105
Oc1c(CN2CCN(Cc3ccc4cccnc4c3O)CC2)ccc2cccnc12 [CBK261994]	86.1
C=CCOc1ccc(OCCN2CC(C)OC(C)C2)cc1 (stereo not shown) [CBK269646C]	112
Cc1ncc(CN(CCN(C)C)Cc2cccs2)n1C [CBK282993]	93.4
Cc1nc(C2CC(=O)N(Cc3ccccn3)C2)n(-c2ccccc2F)n1 (stereo not shown) [CBK306895]	89.6
O=S(=O)(c1ccccc1)c1nc(-c2ccco2)oc1NCCCn1ccnc1 [CBK267670]	87.1
Cc1cc(C(=O)CSc2nnc(CN3CCCC3)o2)c(C)n1C1CC1 [CBK306199]	84
Cc1ccc(CN2CCNCC2CCO)o1 (stereo not shown) [CBK269844]	92.3
COc1ccc(CCN2C(=O)N[C@@H](CCC(=O)NC3CC3)C2=O)cc1 [CBK288001]	109
